ChEMBL document CHEMBL3864162, “Discovery of potent inhibitors of the lysophospholipase autotaxin” (Bioorg Med Chem Lett, 2016)
Each block holds one compound with its values, some of them ahead of it.

Tests used:
[1] = target: T1, Autotaxin (Homo sapiens, UniProt Q13822); assay: Inhibition of ATX in human plasma assessed as decrease in hydrolysis of lysophosphatidylcholine by measuring choline release after 24 hrs by horseradish peroxidase/choline oxidase-coupled assay; assay type: cell-free
[2] = Volume of distribution at steady state in CD1 mouse at 1 mg/kg, iv administered as bolus dose measured up to 7 hrs by UPLC/MS/MS spectrometry analysis; assay type: ADME, organism-based; conditions: in vivo, read-out: Vdss
[3] = Blood clearance in CD1 mouse at 1 mg/kg, iv administered as bolus dose measured up to 7 hrs by UPLC/MS/MS spectrometry analysis; assay type: ADME, organism-based
[4] = Half life in CD1 mouse blood at 1 mg/kg, iv administered as bolus dose measured up to 7 hrs by UPLC/MS/MS spectrometry analysis; assay type: ADME, organism-based
[5] = Intrinsic clearance in CD1 mouse liver microsomes assessed per gram of liver at 1 uM in presence of NADPH regenerating system measured up to 45 mins by UPLC/MS/MS analysis; assay type: ADME; conditions: 0.75 h
[6] = target: T1, Autotaxin; assay: Inhibition of human recombinant ATX using Rac-1-Palmitoyl-glycero-3-phosphocholine as substrate incubated for 2 hrs using ADHP fluorogenic peroxidase substrate by horseradish peroxidase/choline oxidase-coupled assay
[7] = Intrinsic clearance in human liver microsomes assessed per gram of liver at 1 uM in presence of NADPH regenerating system measured up to 45 mins by UPLC/MS/MS analysis; assay type: ADME; conditions: 0.75 h
[8] = Volume of distribution at steady state in CD1 mouse at 0.5 mg/kg, iv administered as bolus dose measured up to 7 hrs by UPLC/MS/MS spectrometry analysis; assay type: ADME, organism-based; conditions: in vivo, read-out: Vdss
[9] = Blood clearance in CD1 mouse at 0.5 mg/kg, iv administered as bolus dose measured up to 7 hrs by UPLC/MS/MS spectrometry analysis; assay type: ADME, organism-based
[10] = Half life in CD1 mouse blood at 0.5 mg/kg, iv administered as bolus dose measured up to 7 hrs by UPLC/MS/MS spectrometry analysis; assay type: ADME, organism-based
[11] = Half life in Sprague-Dawley rat blood at 1 mg/kg, iv administered as bolus dose or 3 mg/kg, po administered via gastric gavage measured up to 20 hrs by UPLC/MS/MS spectrometry analysis; assay type: ADME, organism-based
[12] = AUC in Balb-c nu/nu mouse at 100 mg/kg, po measured up to 7 hrs by UPLC/MS/MS spectrometry analysis; assay type: ADME, organism-based; design: dose 100 mg/kg, time < 7 hr, route oral; conditions: in vivo
[13] = system: Mus musculus; assay: Reduction in plasma LPA C18:1 levels in Balb-c nu/nu mouse xenografted with human MDA-MB-231-luc cells at 30 to 100 mg/kg, po by UPLC/MS/MS analysis relative to control; assay type: functional
[14] = target: T1, Autotaxin; assay: Inhibition of ATX in human plasma assessed as decrease in LPA C18:1 levels after 24 hrs by horseradish peroxidase/choline oxidase-coupled assay
[15] = Cmax in Balb-c nu/nu mouse at 10 mg/kg, po measured up to 7 hrs by UPLC/MS/MS spectrometry analysis; assay type: ADME, organism-based; design: dose 10 mg/kg, route oral; conditions: in vivo
[16] = AUC in Balb-c nu/nu mouse at 30 mg/kg, po measured up to 7 hrs by UPLC/MS/MS spectrometry analysis; assay type: ADME, organism-based; design: time < 7 hr, dose 30 mg/kg, route oral; conditions: in vivo
[17] = in vivo; conditions: Balb-c nu/nu, mouse, blood, po, 30 mg/kg
[18] = system: Mus musculus; assay: Reduction in plasma LPA C18:2 levels in Balb-c nu/nu mouse xenografted with human MDA-MB-231-luc cells at 30 to 100 mg/kg, po by UPLC/MS/MS analysis relative to control; assay type: functional
[19] = Cmax in Balb-c nu/nu mouse at 100 mg/kg, po measured up to 7 hrs by UPLC/MS/MS spectrometry analysis; assay type: ADME, organism-based; design: dose 100 mg/kg, route oral; conditions: in vivo
[20] = species: Mus musculus; assay: animal or person; conditions: Balb-c, Plasma
Description: Reduction in plasma LPA C18:2 levels in po dosed Balb-c nu/nu mouse xenografted with human MDA-MB-231-luc cells by UPLC/MS/MS analysis

[21] = Fraction unbound in rat plasma; assay type: ADME, cell-free
[22] = species: Mus musculus; assay: animal or person; conditions: Balb-c, Plasma; remark: listed apart in the source
Description: Reduction in plasma LPA C20:4 levels in po dosed Balb-c nu/nu mouse xenografted with human MDA-MB-231-luc cells by UPLC/MS/MS analysis

[23] = Intrinsic clearance in rat liver microsomes assessed per gram of liver; assay type: ADME
[24] = Blood clearance in Sprague-Dawley rat at 1 mg/kg, iv administered as bolus dose measured up to 20 hrs by UPLC/MS/MS spectrometry analysis; assay type: ADME, organism-based
[25] = in vivo; conditions: Sprague-Dawley, rat, po, 3 mg/kg
[26] = species: Mus musculus; assay: animal or person; conditions: Balb-c, Plasma; remark: listed apart in the source
Description: Reduction in plasma LPA C18:1 levels in po dosed Balb-c nu/nu mouse xenografted with human MDA-MB-231-luc cells by UPLC/MS/MS analysis

[27] = Half life in Balb-c nu/nu mouse blood at 30 mg/kg, po measured up to 7 hrs by UPLC/MS/MS spectrometry analysis; assay type: ADME, organism-based
[28] = Cmax in Balb-c nu/nu mouse at 30 mg/kg, po measured up to 7 hrs by UPLC/MS/MS spectrometry analysis; assay type: ADME, organism-based; design: dose 30 mg/kg, route oral; conditions: in vivo
[29] = system: Mus musculus; assay: Reduction in plasma LPA C20:4 levels in Balb-c nu/nu mouse xenografted with human MDA-MB-231-luc cells at 30 to 100 mg/kg, po by UPLC/MS/MS analysis relative to control; assay type: functional
[30] = system: Mus musculus; assay: Toxicity in Balb-c nu/nu mouse at 100 mg/kg, po bid administered for 5 days; assay type: organism-based; conditions: in vivo, 120 h
[31] = species: Mus musculus; assay: animal or person; conditions: Balb-c, Plasma; remark: listed apart in the source
Description: Reduction in plasma LPA C16:0 levels in po dosed Balb-c nu/nu mouse xenografted with human MDA-MB-231-luc cells by UPLC/MS/MS analysis

[32] = in vivo; conditions: Balb-c nu/nu, mouse, blood, po, 100 mg/kg
[33] = AUC in Balb-c nu/nu mouse at 10 mg/kg, po measured up to 7 hrs by UPLC/MS/MS spectrometry analysis; assay type: ADME, organism-based; design: time < 7 hr, dose 10 mg/kg, route oral; conditions: in vivo
[34] = Fraction unbound in mouse plasma; assay type: ADME, cell-free
[35] = system: Mus musculus; assay: Reduction in plasma LPA C16:0 levels in Balb-c nu/nu mouse xenografted with human MDA-MB-231-luc cells at 30 to 100 mg/kg, po by UPLC/MS/MS analysis relative to control; assay type: functional
[36] = Half life in Balb-c nu/nu mouse blood at 100 mg/kg, po measured up to 7 hrs by UPLC/MS/MS spectrometry analysis; assay type: ADME, organism-based
[37] = Half life in Balb-c nu/nu mouse blood at 10 mg/kg, po measured up to 7 hrs by UPLC/MS/MS spectrometry analysis; assay type: ADME, organism-based

SMILES: COc1ccc(Cn2c(CCC(=O)N[C@@H](C)c3ccc(Cl)cc3)nc3cccnc32)cc1
IC50 [1]: 215 nM

SMILES: C[C@H](NC(=O)CCc1nc2cccnc2n1Cc1ccc(OC(F)F)cc1)c1ccc(Cl)cc1
Vd [2]: 0.4 L/kg
IC50 [6]: 2 nM
clearance [3]: 62 mL/min/kg
half-life [4]: 22.2 min
CLH [5]: 52.8 mL/min/g
IC50 [1]: 44 nM

SMILES: C[C@H](NC(=O)COc1nc2cccnc2n1Cc1ccc(F)cc1)c1ccc(F)cc1
CLH [5]: 15.6 mL/min/g
IC50 [1]: 821 nM

SMILES: C[C@H](NC(=O)CCc1nc2ccncc2n1Cc1ccc(OC(F)(F)F)cc1)c1ccc(F)cc1
IC50 [1]: 32 nM

SMILES: C[C@H](NC(=O)COc1nc2cccnc2n1Cc1ccc(OC(F)(F)F)cc1)c1ccc(Cl)cc1
Vd [8]: 0.4 L/kg
clearance [9]: 78 mL/min/kg
CLH [5]: 10.8 mL/min/g
half-life [10]: 12 min
IC50 [1]: 99 nM

SMILES: C[C@H](NC(=O)C[S+]([O-])c1nc2cccnc2n1Cc1ccc(OC(F)(F)F)cc1)c1ccc(F)cc1 (stereo in doubt; 26a)
Vd [2]: 0.2 L/kg
IC50 [6]: 10 nM
clearance [3]: 82 mL/min/kg
half-life [4]: 13.2 min
CLH [5]: 28.6 mL/min/g
IC50 [1]: 178 nM

SMILES: C[C@H](NC(=O)C[S+]([O-])c1nc2cccnc2n1Cc1ccc(OC(F)(F)F)cc1)c1ccc(F)cc1 (stereo in doubt; 26b)
IC50 [6]: 178 nM
CLH [5]: 19.8 mL/min/g
IC50 [1]: 207 nM

SMILES: C[C@H](NC(=O)CCc1nc2cccnc2n1Cc1ccc(OC(F)(F)F)cc1)c1ccc(Cl)cc1 [CAMBRITAXESTAT]
half-life [11]: 324 min
AUC at 7 h [12]: 59.3 µM·h
%max [13]: 89 - 93%
CLH [7]: 9.4 mL/min/g
IC50 [14]: 38 nM
Vd [2]: 1.3 L/kg
Cmax [15]: 3.8 µM
AUC at 7 h [16]: 15.2 µM·h
bioavailability at 7 h [17]: 64%
IC50 [6]: 1 nM
%max [18]: 89 - 93%
Cmax [19]: 18.1 µM
EC50 [20]: 30 nM
fraction unbound [21]: 0.02
EC50 [22]: 46 nM
clearance [3]: 41 mL/min/kg
CLH [23]: 15 mL/min/g
clearance [24]: 19 mL/min/kg
bioavailability at 20 h [25]: 28%
EC50 [26]: 13 nM
half-life [27]: 54 min
Cmax [28]: 10.9 µM
%max [29]: 89 - 93%
Activity [30]: Non-Toxic
EC50 [31]: 8 nM
bioavailability at 7 h [32]: 75%
AUC at 7 h [33]: 3.2 µM·h
fraction unbound [34]: 0.018
%max [35]: 89 - 93%
half-life [4]: 60 min
half-life [36]: 78 min
half-life [37]: 84 min
CLH [5]: 44.1 mL/min/g
IC50 [1]: 14 to 24 nM

Now from value to compound:

Vd [2]: 0.3 L/kg
clearance [3]: 67 mL/min/kg
half-life [4]: 9 min
CLH [5]: 10 mL/min/g
IC50 [1]: 1050 nM
SMILES: C[C@H](NC(=O)NCc1nc2cccnc2n1Cc1ccc(F)cc1)c1ccc(F)cc1

CLH [5]: 15.3 mL/min/g
IC50 [1]: 5800 nM
SMILES: O=C(CCc1nc2cccnc2n1Cc1ccccc1)NCc1ccc(Cl)cc1

IC50 [6]: 6770 nM
SMILES: CS(=O)(=O)c1ccc(CNC(=O)CCc2nc3cccnc3n2Cc2ccccc2)cc1

IC50 [6]: 1250 nM
SMILES: O=C(CCc1nc2cccnc2n1Cc1ccccc1)NCc1ccccc1F

CLH [7]: 17.4 mL/min/g
IC50 [6]: 444 nM
CLH [5]: 30.8 mL/min/g
IC50 [1]: 9700 nM
SMILES: O=C(CCc1nc2cccnc2n1Cc1ccccc1)NCC1CCCCC1

CLH [7]: 41.2 mL/min/g
CLH [5]: 23.9 mL/min/g
SMILES: O=C(CCc1nc2cccnc2n1Cc1ccccc1)NCc1ccc(F)cc1

IC50 [6]: 2970 nM
SMILES: COc1cccc(CNC(=O)CCc2nc3cccnc3n2Cc2ccccc2)c1

IC50 [6]: 2430 nM
SMILES: O=C(CCc1nc2cccnc2n1Cc1ccccc1)NCc1ccsc1
